Results as given in ChEMBL document CHEMBL1938230, “6-Position optimization of tricyclic 4-quinolone-based inhibitors of glycogen synthase kinase-3β: discovery of nitrile derivatives with picomolar potency” (Bioorg Med Chem Lett, 2012).

Experiments:
Type in all cases: cell-free
[1] = target: Serine/threonine-protein kinase 26 (Homo sapiens) (UniProt Q9P289); experiment: Inhibition of human MST4 in HL-60 cells lysate assessed as reduction of labeling of acyl-phosphate ATP probe at 100 nM
[2] = target: T1, Aurora kinase A (Homo sapiens) (UniProt O14965); experiment: Inhibition of human AurA in HL-60 cells lysate assessed as reduction of labeling of acyl-phosphate ATP probe at 100 nM
T1 sequence (whole entry): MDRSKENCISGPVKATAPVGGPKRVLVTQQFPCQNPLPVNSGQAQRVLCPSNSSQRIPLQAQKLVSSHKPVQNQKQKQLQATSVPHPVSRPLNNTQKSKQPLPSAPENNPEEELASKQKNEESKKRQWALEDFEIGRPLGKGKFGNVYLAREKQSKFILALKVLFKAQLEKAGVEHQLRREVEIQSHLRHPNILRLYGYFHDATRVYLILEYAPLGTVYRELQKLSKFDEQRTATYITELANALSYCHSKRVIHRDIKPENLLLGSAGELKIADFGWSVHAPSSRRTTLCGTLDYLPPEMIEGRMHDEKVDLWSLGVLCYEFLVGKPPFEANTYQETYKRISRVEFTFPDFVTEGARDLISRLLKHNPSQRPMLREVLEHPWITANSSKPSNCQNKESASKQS

[3] = target: Tyrosine-protein kinase Fgr (Homo sapiens) (UniProt P09769); experiment: Inhibition of human FGR in HL-60 cells lysate assessed as reduction of labeling of acyl-phosphate ATP probe at 100 nM
[4] = target: Cyclin-dependent kinase 14 (Homo sapiens) (UniProt O94921); experiment: Inhibition of human PFTAIRE1 in HL-60 cells lysate assessed as reduction of labeling of acyl-phosphate ATP probe at 100 nM
[5] = target: Dual specificity mitogen-activated protein kinase kinase 2 (Homo sapiens) (UniProt P36507); experiment: Inhibition of human MAP2K2 in HL-60 cells lysate assessed as reduction of labeling of acyl-phosphate ATP probe at 100 nM
[6] = target: Tyrosine-protein kinase HCK (Homo sapiens) (UniProt P08631); experiment: Inhibition of human HCK in HL-60 cells lysate assessed as reduction of labeling of acyl-phosphate ATP probe at 100 nM
[7] = target: T2, Phosphatidylinositol 5-phosphate 4-kinase type-2 beta (Homo sapiens) (UniProt P78356); experiment: Inhibition of human PIP4K2B in HL-60 cells lysate assessed as reduction of labeling of acyl-phosphate ATP probe at 100 nM
T2 sequence (whole entry): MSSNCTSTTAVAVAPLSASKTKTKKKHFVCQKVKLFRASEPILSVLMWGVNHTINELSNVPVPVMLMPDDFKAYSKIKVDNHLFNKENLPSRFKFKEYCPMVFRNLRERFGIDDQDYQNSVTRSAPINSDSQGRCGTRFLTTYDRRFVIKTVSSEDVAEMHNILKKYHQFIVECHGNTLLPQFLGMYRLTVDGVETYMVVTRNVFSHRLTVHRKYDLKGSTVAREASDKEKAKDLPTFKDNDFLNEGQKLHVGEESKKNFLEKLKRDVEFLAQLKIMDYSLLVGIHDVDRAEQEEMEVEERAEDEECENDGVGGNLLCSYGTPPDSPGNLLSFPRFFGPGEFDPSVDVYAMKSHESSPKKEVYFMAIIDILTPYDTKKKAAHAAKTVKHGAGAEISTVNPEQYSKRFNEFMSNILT

[8] = target: Tyrosine-protein kinase BTK (Homo sapiens) (UniProt Q06187); experiment: Inhibition of human BTK in HL-60 cells lysate assessed as reduction of labeling of acyl-phosphate ATP probe at 100 nM
[9] = target: Serine/threonine-protein kinase/endoribonuclease IRE1 (Homo sapiens) (UniProt O75460); experiment: Inhibition of human IRE1 in HL-60 cells lysate assessed as reduction of labeling of acyl-phosphate ATP probe at 100 nM
[10] = target: T3, Dual specificity mitogen-activated protein kinase kinase 6 (Homo sapiens) (UniProt P52564); experiment: Inhibition of human MAP2K6 in HL-60 cells lysate assessed as reduction of labeling of acyl-phosphate ATP probe at 100 nM
T3 sequence (whole entry): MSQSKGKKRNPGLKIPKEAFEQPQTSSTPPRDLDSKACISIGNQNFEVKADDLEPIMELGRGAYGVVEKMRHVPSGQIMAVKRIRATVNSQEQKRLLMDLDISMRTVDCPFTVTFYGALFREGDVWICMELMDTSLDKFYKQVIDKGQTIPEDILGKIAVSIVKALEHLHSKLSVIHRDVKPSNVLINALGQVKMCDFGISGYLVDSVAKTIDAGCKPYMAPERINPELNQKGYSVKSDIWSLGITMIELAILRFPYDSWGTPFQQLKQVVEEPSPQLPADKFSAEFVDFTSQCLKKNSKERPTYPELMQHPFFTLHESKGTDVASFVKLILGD

[11] = target: T4, Dual specificity mitogen-activated protein kinase kinase 4 (Homo sapiens) (UniProt P45985); experiment: Inhibition of human MAP2K4 in HL-60 cells lysate assessed as reduction of labeling of acyl-phosphate ATP probe at 100 nM
T4 sequence (whole entry): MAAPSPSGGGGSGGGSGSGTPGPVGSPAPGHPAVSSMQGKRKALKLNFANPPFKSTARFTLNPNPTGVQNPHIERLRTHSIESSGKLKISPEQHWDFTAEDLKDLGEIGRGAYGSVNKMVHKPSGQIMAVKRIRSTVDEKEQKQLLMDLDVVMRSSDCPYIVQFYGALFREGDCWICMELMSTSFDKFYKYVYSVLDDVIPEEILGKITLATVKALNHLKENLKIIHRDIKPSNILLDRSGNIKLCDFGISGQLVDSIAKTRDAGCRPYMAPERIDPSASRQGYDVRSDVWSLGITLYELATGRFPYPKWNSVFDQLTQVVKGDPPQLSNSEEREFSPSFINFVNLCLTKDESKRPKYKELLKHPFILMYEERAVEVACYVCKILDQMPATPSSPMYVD

[12] = target: Glycogen synthase kinase-3 alpha (Homo sapiens) (UniProt P49840); experiment: Inhibition of human GSK3alpha in HL-60 cells lysate assessed as reduction of labeling of acyl-phosphate ATP probe at 100 nM
[13] = target: Cyclin-dependent kinase 1 (Homo sapiens) (UniProt P06493); experiment: Inhibition of human CDC2 in HL-60 cells lysate assessed as reduction of labeling of acyl-phosphate ATP probe at 100 nM
Cyclin-dependent kinase 1 (Homo sapiens), sequence (P06493 whole entry, looked up): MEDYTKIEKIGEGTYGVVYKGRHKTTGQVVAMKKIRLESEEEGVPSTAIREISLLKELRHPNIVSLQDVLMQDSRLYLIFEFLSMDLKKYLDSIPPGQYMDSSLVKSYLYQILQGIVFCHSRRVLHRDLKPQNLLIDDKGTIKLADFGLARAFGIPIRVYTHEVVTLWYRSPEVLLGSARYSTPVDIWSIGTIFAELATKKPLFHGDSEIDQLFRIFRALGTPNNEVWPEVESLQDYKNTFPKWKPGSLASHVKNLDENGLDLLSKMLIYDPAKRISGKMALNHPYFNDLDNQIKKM

Cyclin-dependent kinase 14 (Homo sapiens), sequence (O94921 whole entry): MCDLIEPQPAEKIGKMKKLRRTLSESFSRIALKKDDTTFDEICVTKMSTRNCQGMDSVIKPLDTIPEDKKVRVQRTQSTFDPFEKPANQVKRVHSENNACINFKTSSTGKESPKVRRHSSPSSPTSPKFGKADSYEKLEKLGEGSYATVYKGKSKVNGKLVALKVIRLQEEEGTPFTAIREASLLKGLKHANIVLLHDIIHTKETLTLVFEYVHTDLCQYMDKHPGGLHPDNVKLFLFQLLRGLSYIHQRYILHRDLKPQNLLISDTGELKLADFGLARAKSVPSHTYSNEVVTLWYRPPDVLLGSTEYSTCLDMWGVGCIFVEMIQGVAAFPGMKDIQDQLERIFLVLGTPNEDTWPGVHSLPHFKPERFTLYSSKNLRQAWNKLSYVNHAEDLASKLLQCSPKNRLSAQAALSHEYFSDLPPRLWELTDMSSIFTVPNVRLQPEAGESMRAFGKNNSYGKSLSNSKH
Serine/threonine-protein kinase 26 (Homo sapiens), sequence (Q9P289 2-416 limits assumed): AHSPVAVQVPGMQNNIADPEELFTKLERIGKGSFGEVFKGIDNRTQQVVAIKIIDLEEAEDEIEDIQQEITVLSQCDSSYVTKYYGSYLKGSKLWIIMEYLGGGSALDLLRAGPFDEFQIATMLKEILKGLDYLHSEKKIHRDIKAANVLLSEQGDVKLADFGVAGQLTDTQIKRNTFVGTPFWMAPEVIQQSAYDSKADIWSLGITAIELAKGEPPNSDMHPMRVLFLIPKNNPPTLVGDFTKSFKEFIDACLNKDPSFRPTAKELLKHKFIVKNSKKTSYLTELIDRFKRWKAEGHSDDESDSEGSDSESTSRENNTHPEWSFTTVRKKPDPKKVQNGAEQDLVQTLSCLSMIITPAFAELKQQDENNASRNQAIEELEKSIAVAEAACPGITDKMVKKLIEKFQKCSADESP
Tyrosine-protein kinase Fgr (Homo sapiens), sequence (P09769 2-529 limits assumed): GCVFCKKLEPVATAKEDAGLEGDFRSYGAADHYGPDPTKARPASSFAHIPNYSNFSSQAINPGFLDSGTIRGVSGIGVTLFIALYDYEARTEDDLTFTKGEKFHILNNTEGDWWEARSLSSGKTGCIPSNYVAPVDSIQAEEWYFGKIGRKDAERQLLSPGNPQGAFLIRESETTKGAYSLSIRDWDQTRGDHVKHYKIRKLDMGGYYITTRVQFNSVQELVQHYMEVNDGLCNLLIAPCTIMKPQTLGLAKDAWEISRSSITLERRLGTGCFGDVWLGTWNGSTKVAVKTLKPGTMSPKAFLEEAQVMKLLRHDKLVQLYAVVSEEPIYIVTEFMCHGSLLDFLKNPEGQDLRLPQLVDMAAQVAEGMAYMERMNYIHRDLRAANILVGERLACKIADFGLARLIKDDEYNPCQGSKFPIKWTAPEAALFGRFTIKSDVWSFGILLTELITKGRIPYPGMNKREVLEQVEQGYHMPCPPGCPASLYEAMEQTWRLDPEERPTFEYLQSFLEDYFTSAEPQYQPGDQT
Serine/threonine-protein kinase/endoribonuclease IRE1 (Homo sapiens), sequence (O75460 19-977 limits assumed): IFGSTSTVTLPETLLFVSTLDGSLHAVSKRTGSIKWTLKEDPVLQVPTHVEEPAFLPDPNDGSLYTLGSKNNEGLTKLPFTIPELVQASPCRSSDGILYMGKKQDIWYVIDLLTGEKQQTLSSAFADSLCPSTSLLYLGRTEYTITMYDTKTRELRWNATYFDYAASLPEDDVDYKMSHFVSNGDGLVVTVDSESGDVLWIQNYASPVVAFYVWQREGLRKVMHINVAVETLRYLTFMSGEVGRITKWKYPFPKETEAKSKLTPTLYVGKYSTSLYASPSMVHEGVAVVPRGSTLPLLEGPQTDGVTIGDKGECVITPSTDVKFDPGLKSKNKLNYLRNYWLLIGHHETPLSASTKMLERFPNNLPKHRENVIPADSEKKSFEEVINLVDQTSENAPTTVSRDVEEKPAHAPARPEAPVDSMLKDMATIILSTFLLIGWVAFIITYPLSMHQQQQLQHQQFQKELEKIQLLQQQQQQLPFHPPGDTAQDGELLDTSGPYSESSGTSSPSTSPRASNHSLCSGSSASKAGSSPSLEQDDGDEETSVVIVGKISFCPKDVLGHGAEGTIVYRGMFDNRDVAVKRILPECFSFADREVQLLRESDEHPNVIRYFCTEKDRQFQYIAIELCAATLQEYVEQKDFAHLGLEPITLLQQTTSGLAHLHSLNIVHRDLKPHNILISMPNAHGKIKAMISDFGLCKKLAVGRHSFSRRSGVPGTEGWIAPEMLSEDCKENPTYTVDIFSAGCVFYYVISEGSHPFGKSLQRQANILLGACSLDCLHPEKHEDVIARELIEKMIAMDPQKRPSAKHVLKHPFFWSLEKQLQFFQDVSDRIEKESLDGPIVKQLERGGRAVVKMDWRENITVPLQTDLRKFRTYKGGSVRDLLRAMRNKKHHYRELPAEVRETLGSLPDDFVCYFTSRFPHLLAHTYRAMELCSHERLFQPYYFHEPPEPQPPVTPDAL
Tyrosine-protein kinase BTK (Homo sapiens), sequence (Q06187 whole entry): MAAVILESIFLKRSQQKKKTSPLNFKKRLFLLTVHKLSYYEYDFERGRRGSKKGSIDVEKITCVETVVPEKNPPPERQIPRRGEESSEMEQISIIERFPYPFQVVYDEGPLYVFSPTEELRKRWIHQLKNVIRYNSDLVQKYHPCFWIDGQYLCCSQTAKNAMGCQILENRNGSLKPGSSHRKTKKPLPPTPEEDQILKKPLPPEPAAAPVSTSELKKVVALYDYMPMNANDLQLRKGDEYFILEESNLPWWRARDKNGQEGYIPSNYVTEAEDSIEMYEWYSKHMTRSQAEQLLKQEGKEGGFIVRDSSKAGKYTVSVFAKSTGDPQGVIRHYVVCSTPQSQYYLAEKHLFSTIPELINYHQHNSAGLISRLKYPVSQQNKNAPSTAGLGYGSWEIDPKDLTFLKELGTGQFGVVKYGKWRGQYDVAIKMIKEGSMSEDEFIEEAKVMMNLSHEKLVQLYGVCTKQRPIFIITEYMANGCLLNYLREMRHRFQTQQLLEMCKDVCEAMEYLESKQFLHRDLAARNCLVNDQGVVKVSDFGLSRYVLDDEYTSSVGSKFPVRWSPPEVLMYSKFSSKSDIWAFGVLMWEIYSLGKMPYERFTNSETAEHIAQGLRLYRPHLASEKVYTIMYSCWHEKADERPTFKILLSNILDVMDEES
Tyrosine-protein kinase HCK (Homo sapiens), sequence (P08631 2-526 limits assumed): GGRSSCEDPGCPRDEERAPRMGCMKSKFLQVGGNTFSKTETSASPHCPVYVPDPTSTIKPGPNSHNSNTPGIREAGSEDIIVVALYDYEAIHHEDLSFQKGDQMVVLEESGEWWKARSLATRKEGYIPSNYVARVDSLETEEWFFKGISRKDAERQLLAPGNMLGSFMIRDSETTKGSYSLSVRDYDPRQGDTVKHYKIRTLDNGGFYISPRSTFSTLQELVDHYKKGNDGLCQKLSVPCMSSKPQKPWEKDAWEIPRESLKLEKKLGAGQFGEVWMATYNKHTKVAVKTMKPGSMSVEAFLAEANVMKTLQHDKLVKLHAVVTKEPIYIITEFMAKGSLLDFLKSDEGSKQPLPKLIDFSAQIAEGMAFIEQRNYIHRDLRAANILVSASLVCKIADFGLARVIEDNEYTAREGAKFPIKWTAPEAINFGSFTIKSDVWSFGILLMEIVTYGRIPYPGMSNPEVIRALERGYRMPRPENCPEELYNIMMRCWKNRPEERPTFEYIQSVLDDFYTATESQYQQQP
Glycogen synthase kinase-3 alpha (Homo sapiens), sequence (P49840 2-483 limits assumed): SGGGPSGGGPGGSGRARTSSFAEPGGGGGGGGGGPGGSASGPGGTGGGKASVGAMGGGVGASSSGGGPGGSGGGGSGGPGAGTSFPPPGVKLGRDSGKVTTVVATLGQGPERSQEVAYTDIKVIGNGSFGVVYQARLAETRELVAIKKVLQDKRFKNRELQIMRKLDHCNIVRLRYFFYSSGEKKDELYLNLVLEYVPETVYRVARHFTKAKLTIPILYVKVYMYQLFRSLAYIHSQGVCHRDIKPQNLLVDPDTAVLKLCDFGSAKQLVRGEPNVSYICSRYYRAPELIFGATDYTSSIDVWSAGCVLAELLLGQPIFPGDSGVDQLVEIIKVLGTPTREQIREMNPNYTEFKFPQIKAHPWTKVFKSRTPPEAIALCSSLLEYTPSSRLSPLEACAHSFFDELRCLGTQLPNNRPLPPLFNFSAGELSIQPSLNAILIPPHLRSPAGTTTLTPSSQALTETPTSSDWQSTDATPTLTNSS
Dual specificity mitogen-activated protein kinase kinase 2 (Homo sapiens), sequence (P36507 whole entry): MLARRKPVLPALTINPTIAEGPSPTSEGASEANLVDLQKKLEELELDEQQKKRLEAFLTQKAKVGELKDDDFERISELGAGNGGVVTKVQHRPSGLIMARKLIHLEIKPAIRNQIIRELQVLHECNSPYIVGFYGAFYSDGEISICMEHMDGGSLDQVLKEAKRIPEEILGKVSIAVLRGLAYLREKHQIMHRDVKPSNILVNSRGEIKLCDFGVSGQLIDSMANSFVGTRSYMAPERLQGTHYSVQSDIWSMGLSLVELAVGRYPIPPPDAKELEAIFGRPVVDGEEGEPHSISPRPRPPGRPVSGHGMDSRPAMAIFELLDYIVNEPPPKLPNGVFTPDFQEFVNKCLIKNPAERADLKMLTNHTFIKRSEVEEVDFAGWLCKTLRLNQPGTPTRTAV

inhibition [1] [%] | inhibition [2] [%] | inhibition [3] [%] | inhibition [4] [%] | inhibition [5] [%] | inhibition [6] [%] | inhibition [7] [%] | inhibition [8] [%] | inhibition [9] [%] | inhibition [10] [%] | inhibition [11] [%] | inhibition [12] [%] | inhibition [13] [%] | SMILES
< 35 | < 35 | < 35 | < 35 | < 35 | < 35 | < 35 | < 35 | < 35 | < 35 | < 35 | > 99.5 | < 35 | C[C@H]1COc2c(NCCCc3ccccn3)c(F)c(N)c3c(=O)c(C#N)cn1c23
< 35 | < 35 | < 35 | < 35 | < 35 | < 35 | < 35 | < 35 | < 35 | < 35 | < 35 | > 99.5 | < 35 | C[C@H]1COc2c(NCCCn3cccn3)c(F)c(N)c3c(=O)c(C#N)cn1c23
< 35 | < 35 | < 35 | < 35 | < 35 | < 35 | < 35 | < 35 | < 35 | < 35 | < 35 | 94.3 | < 35 | C[C@H]1COc2c(NCCCc3ccccn3)c(F)c(N)c3c(=O)c(C(=O)O)cn1c23
< 35 | < 35 | < 35 | < 35 | < 35 | < 35 | < 35 | < 35 | < 35 | < 35 | < 35 | 95.2 | < 35 | C[C@H]1COc2c(NCCCn3cccn3)c(F)c(N)c3c(=O)c(C(=O)O)cn1c23
